Reference: patent US7166726B2, “Aryl substituted 3,4-dihydroanthracene derivatives having retinoid antagonist or retinoid inverse agonist type biological activity” (Allergan, Inc., priority 1996, dated 2007)

Legend:
[1] = tested on: RARγ-VP-16 chimeric receptor; experiment: Retinoid inverse agonist assay: repression of basal luciferase activity of RARγ-VP-16 chimeric receptor in CV-1 cells; format: cell-based; details: CV-1 cells cotransfected with RARγ-VP-16, ER-RXRα chimeric receptor and ERE-tk-Luc reporter; read-out: IC50, inhibition of basal luciferase activity
Excerpt: The activity of retinoid inverse agonists can be tested by the procedure of Klein et al. J. Biol. Chem. 271, 22692–22696 (1996) which is expressly incorporated herein by reference.
In this assay, retinoid inverse agonists are able to repress the basal activity of a RARγ-VP-16 chimeric receptor where the constituitively active domain of the herpes simplex virus (HSV) VP-16 is fused to the N-terminus of RARγ. CV-1 cells are cotransfected with RARγ-VP-16, an ER-RXRα chimeric receptor and an ERE-tk-Luc chimeric reporter gene to produce a basal level of luciferase activity, as shown by Nagpal et al. EMBO J. 12, 2349–2360 (1933) expressly incorporated herein by reference. Retinoid inverse agonists are able to inhibit the basal luciferase activity in these cells in a dose dependent manner and IC50s measured.

RARβ = target: T1, RARβ (Homo sapiens, UniProt P10826); experiment: Ligand binding assay, RARβ
T1 sequence (P10826 1-455): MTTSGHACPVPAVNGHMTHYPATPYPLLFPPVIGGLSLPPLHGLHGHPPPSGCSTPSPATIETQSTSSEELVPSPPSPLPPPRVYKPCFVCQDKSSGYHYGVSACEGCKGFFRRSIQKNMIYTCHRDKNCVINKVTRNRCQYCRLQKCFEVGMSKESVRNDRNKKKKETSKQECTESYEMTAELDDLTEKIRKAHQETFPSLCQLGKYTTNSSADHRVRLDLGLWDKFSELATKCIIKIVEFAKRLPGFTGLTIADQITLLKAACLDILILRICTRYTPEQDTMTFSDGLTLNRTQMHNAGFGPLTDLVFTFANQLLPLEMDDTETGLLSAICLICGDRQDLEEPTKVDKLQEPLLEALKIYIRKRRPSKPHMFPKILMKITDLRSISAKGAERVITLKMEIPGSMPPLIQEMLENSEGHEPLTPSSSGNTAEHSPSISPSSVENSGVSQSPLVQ
Excerpt: (§1) A holoreceptor transactivation assay and a ligand binding assay which measure the antagonist/agonist like activity of the compounds of the invention, or their ability to bind to the several retinoid receptor subtypes, respectively, are described in published PCT Application No. WO WO93/11755 (particularly on pages 30–33 and 37–41) published on Jun. 24, 1993, the specification of which is also incorporated herein by reference. A description of the holoreceptor transactivation assay is also provided below.
(§2) CV1 cells (5,000 cells/well) were transfected with an RAR reporter plasmid MTV-TREp-LUC (50 ng) along with one of the RAR expression vectors (10 ng) in an automated 96-well format by the calcium phosphate procedure of Heyman et al. Cell 68, 397–406, (1992). For RXRα and RXRγ transactivation assays, an RXR-responsive reporter plasmid CRBPII-tk-LUC (50 ng) along with the appropriate RXR expression vectors (10 ng) was used substantially as described by Heyman et al. above, and Allegretto et al. J. Biol. Chem. 268, 26625–26633. For RXRβ transactivation assays, an RXR-responsive reporter plasmid CPRE-tk-LUC ([…]) along with RXRβ expression vector ([…]) was used as described in above. These reporters contain DRI elements from human CRBPII and certain DRI elements from promoter, respectively. […]

RARγ = target: T2, RARγ (Homo sapiens, UniProt P13631); experiment: Ligand binding assay, RARγ; details: read-out: Kd TATγ
T2 sequence (P13631 1-454): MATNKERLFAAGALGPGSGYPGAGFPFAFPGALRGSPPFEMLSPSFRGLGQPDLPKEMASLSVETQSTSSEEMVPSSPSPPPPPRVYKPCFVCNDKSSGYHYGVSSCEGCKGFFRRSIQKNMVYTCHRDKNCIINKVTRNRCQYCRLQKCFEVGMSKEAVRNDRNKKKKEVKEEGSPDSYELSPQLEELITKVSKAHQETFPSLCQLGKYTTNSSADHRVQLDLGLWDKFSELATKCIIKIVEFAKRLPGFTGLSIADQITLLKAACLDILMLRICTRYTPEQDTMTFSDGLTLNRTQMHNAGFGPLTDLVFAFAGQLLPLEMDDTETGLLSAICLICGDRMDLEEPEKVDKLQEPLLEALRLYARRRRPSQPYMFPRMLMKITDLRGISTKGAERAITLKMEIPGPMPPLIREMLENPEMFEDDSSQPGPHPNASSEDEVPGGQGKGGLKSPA
Excerpt: as §1, §2

RARα = target: T3, RARα (Homo sapiens, UniProt P10276); experiment: Ligand binding assay, RARα
T3 sequence (P10276 1-462): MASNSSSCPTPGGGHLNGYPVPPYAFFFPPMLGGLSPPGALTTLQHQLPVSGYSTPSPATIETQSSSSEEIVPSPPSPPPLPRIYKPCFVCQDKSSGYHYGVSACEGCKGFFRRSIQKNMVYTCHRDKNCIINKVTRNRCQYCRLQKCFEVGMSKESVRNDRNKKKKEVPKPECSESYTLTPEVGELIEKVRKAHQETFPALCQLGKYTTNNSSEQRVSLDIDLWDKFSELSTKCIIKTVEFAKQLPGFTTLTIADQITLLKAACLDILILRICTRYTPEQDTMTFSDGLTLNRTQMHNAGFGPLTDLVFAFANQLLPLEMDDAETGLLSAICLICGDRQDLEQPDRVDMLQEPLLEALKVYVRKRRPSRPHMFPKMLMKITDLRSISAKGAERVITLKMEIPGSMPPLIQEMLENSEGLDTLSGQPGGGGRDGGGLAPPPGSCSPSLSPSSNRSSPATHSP
Excerpt: as §1, §2

Question: With `Cc1ccc(C2=CCC(C)(C)c3cc4cccc(-c5ccc(C(=O)O)cc5)c4cc32)cc1` [Compound 2, 4-[1(Tol-4-yl)-3,4-dihydro-4,4-dimethyl-anthracen-8-yl]-benzoic acid] as the compound, how does the IC50 [1] read?
Answer: 1 nM

Question: And the Kd (RARβ)?
Answer: 4 nM

Question: And the Kd (RARγ)?
Answer: 7 nM

Question: And the Kd (RARα)?
Answer: 13 nM

Question: With `Cc1ccc(C2=CC(C)(C)Oc3cc4ccc(-c5ccc(C(=O)O)cc5)cc4cc32)s1` [Compound 12, 4-[2,2-Dimethyl-4-(5-methyl-thien-2-yl)-benzo[1,2-g]-chrom-3-en-7-yl]benzoic acid] as the compound, how does the Kd (RARβ) read?
Answer: 12 nM

Question: And the Kd (RARγ)?
Answer: 33 nM

Question: And the Kd (RARα)?
Answer: 17 nM
